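Grown in 96-well plates, cells were treated for 48 hours with each compound at five concentrations. Insufficient inhibition: endpoint recorded as highest concentration tested. GI50: concentration for 50% inhibition of growth.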 Activity calls are given as the source filed them. No stated cut-off is given here; in the data, active = GI50 up to about 1.1 µM and inactive = higher. Bounds are passed on as bounds.

Among the test systems are UACC-257; HCT-116; U-251; K562; PC-3; HCT-15; DU-145; T47D; 786-0; OVCAR-4; NCI-H460; OVCAR-3; HT-29; NCI-H226; SF-295; MCF7.
What all share (assay): inhibition of tumour cell growth, NCI panel, 48 h

Consider `CC(=O)OCC1OC(n2cnc3nc(Br)[nH]c(=O)c32)C(OC(C)=O)C1OC(C)=O` (centres undefined), for which the GI50 is > 100 µM (inactive) with UACC-257; > 100 µM (inactive) with HCT-116; > 100 µM (inactive) with U-251; > 100 µM (inactive) in the experiment with K562; > 100 µM (inactive) in the experiment on PC-3; greater than 100 µM with HCT-15. Further, the GI50 in the experiment on DU-145, in the experiment on T47D, in the experiment with 786-0, with OVCAR-4, in the experiment on NCI-H460 and in the experiment with OVCAR-3 was > 100 µM (inactive) each time. Also, the GI50 with HT-29 is > 100 µM (inactive); in the experiment on NCI-H226, > 100 µM (inactive); in the experiment on SF-295, > 100 µM (inactive); with MCF7, 62.4 µM (inactive).
Take `NN(CC(=O)O)CC(=O)O`: the GI50 in the experiment with UACC-257 was > 100 µM (inactive); in the experiment with HCT-116, > 100 µM (inactive); in the experiment on U-251, > 100 µM (inactive); with K562, > 100 µM (inactive); in the experiment with PC-3, > 100 µM (inactive); with HCT-15, greater than 100 µM. Also, the GI50 with DU-145, in the experiment with T47D, in the experiment with 786-0, in the experiment on OVCAR-4, in the experiment with NCI-H460 and in the experiment on OVCAR-3 was > 100 µM (inactive) each time. Moreover, the GI50 with HT-29, in the experiment with NCI-H226, in the experiment on SF-295 and in the experiment with MCF7 was > 100 µM (inactive) each time.
For the compound `NCCN1C(=O)c2ccccc2C1(O)c1ccc(Cl)cc1` (centres undefined), the GI50 was 17.1 µM (inactive) in the experiment with UACC-257; 17.8 µM (inactive) in the experiment with HCT-116; 16.1 µM (inactive) in the experiment with U-251; 19.7 µM (inactive) with K562; 20.3 µM (inactive) in the experiment with PC-3; 37.3 µM in the experiment with HCT-15. The GI50 is 33.9 µM (inactive) in the experiment on DU-145; 19.4 µM (inactive) in the experiment on T47D; 17.2 µM (inactive) in the experiment with 786-0; 28.5 µM (inactive) in the experiment with OVCAR-4; 16.4 µM (inactive) with NCI-H460; 23.6 µM (inactive) in the experiment with OVCAR-3. Moreover, the GI50 was 19.6 µM (inactive) with HT-29, 48.8 µM (inactive) with NCI-H226, 21.9 µM (inactive) with SF-295 and 16.7 µM (inactive) in the experiment with MCF7.
For `COc1ccc(OC)c2c(C)ccnc12`, the GI50 is 33.7 µM (inactive) in the experiment on UACC-257; 6.31 µM (inactive) with HCT-116; 16.4 µM (inactive) in the experiment with U-251; > 37.7 µM (inactive) with K562; 20.3 µM (inactive) in the experiment on PC-3; 4.25 µM with HCT-15. For the same compound, the GI50 was 24.1 µM (inactive) with DU-145; 22.5 µM (inactive) in the experiment on T47D; 22.3 µM (inactive) in the experiment on 786-0; 9.77 µM (inactive) in the experiment with OVCAR-4; 21.7 µM (inactive) in the experiment on NCI-H460; 2.99 µM (inactive) with OVCAR-3. For the same compound, the GI50 with HT-29 is 17.1 µM (inactive); in the experiment on NCI-H226, 25.5 µM (inactive); with SF-295 it was 16.5 µM (inactive); in the experiment on MCF7, 9.04 µM (inactive).
On to `COc1ccccc1N1C(=O)CSC1c1cccc(Oc2ccccc2)c1` (centres undefined), for which the GI50 with UACC-257 was 16.7 µM (inactive); in the experiment on HCT-116, 17.6 µM (inactive); with U-251, 17 µM (inactive); in the experiment with K562, 32.8 µM (inactive); in the experiment with PC-3, 17.6 µM (inactive); with HCT-15 it was 17.2 µM. The GI50 with DU-145 was 18.7 µM (inactive); in the experiment with T47D, 18.3 µM (inactive); with 786-0 it was 17.7 µM (inactive); with OVCAR-4 it was 18.5 µM (inactive); with NCI-H460, 18.2 µM (inactive); with OVCAR-3, 21.1 µM (inactive). For the same compound, the GI50 with HT-29 is 20.1 µM (inactive); with NCI-H226 it was 20.3 µM (inactive); with SF-295, 19.4 µM (inactive); with MCF7, 18.2 µM (inactive).
In the case of `COc1cccc(N(CN2CC=CC2=O)C(C)=O)c1`, the GI50 is > 100 µM (inactive) in the experiment with UACC-257; > 100 µM (inactive) in the experiment on HCT-116; > 100 µM (inactive) with U-251; > 100 µM (inactive) with K562; > 100 µM (inactive) with PC-3; greater than 100 µM in the experiment on HCT-15. Besides, the GI50 with DU-145, in the experiment on T47D, in the experiment on 786-0, in the experiment on OVCAR-4, with NCI-H460 and in the experiment with OVCAR-3 was > 100 µM (inactive) each time. Further, the GI50 in the experiment on HT-29, with NCI-H226, in the experiment on SF-295 and in the experiment with MCF7 was > 100 µM (inactive) throughout.
With `CC(=O)O[C@H]1C[C@H]2C(=S)Nc3ccccc3C(=S)N2C1`, the GI50 in the experiment with UACC-257 is > 100 µM (inactive); in the experiment on HCT-116 it was > 100 µM (inactive); in the experiment on U-251, > 100 µM (inactive); in the experiment on K562 it was > 100 µM (inactive); in the experiment on PC-3, > 100 µM (inactive); with HCT-15, greater than 100 µM. The GI50 in the experiment with DU-145, with T47D, with 786-0, in the experiment with OVCAR-4, with NCI-H460 and in the experiment with OVCAR-3 was > 100 µM (inactive) in each case. For the same compound, the GI50 in the experiment on HT-29, in the experiment with NCI-H226, in the experiment on SF-295 and with MCF7 was > 100 µM (inactive) each time.
Turning to `CC(=NNC(=S)Nc1cccc(C)c1)c1cccc(C(C)=NNC(=S)Nc2cccc(C)c2)n1`, the GI50 is 0.0198 µM (active) with UACC-257; 12.2 µM (inactive) in the experiment on HCT-116; 21.5 µM (inactive) in the experiment on U-251; 17.1 µM (inactive) in the experiment with K562; 22.3 µM (inactive) with PC-3; 15.2 µM in the experiment with HCT-15. Moreover, the GI50 in the experiment on DU-145 was > 100 µM (inactive); in the experiment on T47D, 30.8 µM (inactive); in the experiment on 786-0, 8.18 µM (inactive); in the experiment on OVCAR-4, 9.95 µM (inactive); in the experiment on NCI-H460, 12.8 µM (inactive); with OVCAR-3 it was 3.39 µM (inactive). Moreover, the GI50 is 26.1 µM (inactive) with HT-29, 18.6 µM (inactive) in the experiment with NCI-H226, 6.19 µM (inactive) in the experiment on SF-295 and 22.9 µM (inactive) with MCF7.
For the compound `CC(=O)c1c(CO[N+](=O)[O-])[n+]([O-])c2ccccc2[n+]1[O-]`, the GI50 with UACC-257 was > 100 µM (inactive); in the experiment on HCT-116, 47.4 µM (inactive); with U-251 it was 33.8 µM (inactive); in the experiment with K562, > 100 µM (inactive); in the experiment with PC-3, > 100 µM (inactive); in the experiment on HCT-15, 30.8 µM. Further, the GI50 is > 100 µM (inactive) in the experiment with DU-145; 61.4 µM (inactive) with T47D; > 100 µM (inactive) in the experiment with 786-0; > 100 µM (inactive) in the experiment with OVCAR-4; > 100 µM (inactive) in the experiment with NCI-H460; 52.8 µM (inactive) with OVCAR-3. Besides, the GI50 in the experiment with HT-29 was > 100 µM (inactive); with NCI-H226 it was 34.2 µM (inactive); with SF-295 it was > 100 µM (inactive); in the experiment with MCF7, 74.3 µM (inactive).

The record behind these values is ChEMBL document CHEMBL1201862, “PubChem BioAssay data set” (2004).
